Measured values taken from paper PMC11047580, “Design and Synthesis of Novel Amino and Acetamidoaurones with Antimicrobial Activities” (Antibiotics, 2024).
In brackets after ≈: the same amount, converted by molar mass.

Experiments:
[1] = tested on: M. smegmatis ATCC700084; assay: MIC assay (REMA); type: cell-based, Mycobacterium smegmatis; settings: Mycolicibacterium smegmatis, ATCC700084, REMA microdilution, n = 2–3
[2] = Cytotoxic assay, summary over the six human cell types; settings: human, 48 h exposure
[3] = Cytotoxic assay (resazurin); settings: human, HepG2 liver cells
[4] = tested on: Clostridium perfringens (ATCC13124); assay: microbe, parasite or virus in culture; type: cell-based; settings: ATCC13124, read-out: MIC Clostridium perfringens (ATCC13124)
[5] = tested on: Enterobacter cloacae (DSM30054); assay: MIC assay; type: cell-based; settings: two-fold serial dilutions in liquid media, n = 2–3
[6] = tested on: Clostridium botulinum (DSM1985); assay: microbe, parasite or virus in culture; type: cell-based; settings: DSM1985, read-out: MIC Clostridium botulinum (DSM1985)
[7] = tested on: Salmonella enterica (CIP80.39); assay: MIC assay; type: cell-based; settings: two-fold serial dilutions in liquid media, n = 2–3
[8] = Cytotoxic assay (resazurin); settings: human, IMR-90 normal lung fibroblasts
[9] = tested on: Propionibacterium acnes (ATCC6919); assay: MIC assay; type: cell-based; settings: Cutibacterium acnes, two-fold serial dilutions in liquid media, n = 2–3
[10] = tested on: Bacillus anthracis (CNR-charbon_04022); assay: microbe, parasite or virus in culture; type: cell-based; settings: read-out: MIC Bacillus anthracis (CNR-charbon_04022)
[11] = Cytotoxic assay (resazurin); settings: human, Caco-2
[12] = tested on: Cryptococcus neoformans (DSM11959); assay: MIC assay; type: cell-based; settings: two-fold serial dilutions in liquid media, n = 2–3
[13] = tested on: Bacillus cereus (DSM31); assay: MIC assay; type: cell-based; settings: two-fold serial dilutions in liquid media, n = 2–3
[14] = tested on: Acinetobacter baumannii (DSM30007); assay: MIC assay; type: cell-based; settings: two-fold serial dilutions in liquid media, n = 2–3
[15] = tested on: E. coli ATCC8739; assay: MIC assay; type: cell-based, Escherichia coli; settings: Escherichia coli, ATCC8739; two-fold serial dilutions in liquid media; n = 2–3
[16] = tested on: Streptococcus pyogenes (DSM20565); assay: MIC assay; type: cell-based; settings: two-fold serial dilutions in liquid media, n = 2–3
[17] = tested on: Enterococcus faecalis (DSM2570); assay: MIC assay; type: cell-based; settings: two-fold serial dilutions in liquid media, n = 2–3
[18] = Cytotoxic assay (resazurin); settings: human, BEAS-2B normal lung epithelial cells
[19] = tested on: Francisella tularensis (NR-643); assay: microbe, parasite or virus in culture; type: cell-based; settings: read-out: MIC Francisella tularensis (NR-643)
[20] = tested on: Helicobacter pylori (ATCC43504); assay: MIC assay; type: cell-based; settings: two-fold serial dilutions in liquid media, n = 2–3
[21] = tested on: Mycobacterium abscessus R(CIP 104536^T); assay: MIC assay (REMA); type: cell-based; settings: REMA microdilution, n = 2–3
[22] = tested on: Candida tropicalis (DSM9419); assay: MIC assay; type: cell-based; settings: two-fold serial dilutions in liquid media, n = 2–3
[23] = tested on: Brucella melitensis (NR-256); assay: microbe, parasite or virus in culture; type: cell-based; settings: read-out: MIC Brucella melitensis (NR-256)
[24] = tested on: Yersinia pestis (NR-641); assay: microbe, parasite or virus in culture; type: cell-based; settings: read-out: MIC Yersinia pestis (NR-641)
[25] = tested on: Enterococcus faecium (DSM20477); assay: MIC assay; type: cell-based; settings: two-fold serial dilutions in liquid media, n = 2–3
[26] = Cytotoxic assay (resazurin); settings: human, A498 kidney epithelial cells
[27] = tested on: Listeria monocytogenes (DSM20600); assay: MIC assay; type: cell-based; settings: two-fold serial dilutions in liquid media, n = 2–3
[28] = tested on: S. aureus ATCC6538P; assay: MIC assay; type: cell-based, Staphylococcus aureus; settings: Staphylococcus aureus, ATCC6538P; two-fold serial dilutions in liquid media; n = 2–3
[29] = tested on: Candida auris (DSM21092); assay: MIC assay; type: cell-based; settings: Candidozyma auris, two-fold serial dilutions in liquid media, n = 2–3
[30] = tested on: P. aeruginosa ATCC9027; assay: MIC assay; type: cell-based, Pseudomonas aeruginosa; settings: two-fold serial dilutions in liquid media, n = 2–3
[31] = tested on: MRSA (ATCCBAA-1717); assay: MIC assay; type: cell-based, methicillin-resistant S. aureus; settings: Staphylococcus aureus, read-out: MIC MRSA (ATCCBAA-1717)
[32] = tested on: Mycobacterium tuberculosis H37Rv (mc^26230); assay: MIC assay (REMA); type: cell-based; settings: REMA microdilution, n = 2–3
[33] = tested on: Klebsiella pneumonia (DSM26371); assay: MIC assay; type: cell-based; settings: two-fold serial dilutions in liquid media, n = 2–3
[34] = tested on: Shigella flexneri (ATCC12022); assay: MIC assay; type: cell-based; settings: two-fold serial dilutions in liquid media, n = 2–3
[35] = tested on: Fusarium oxysporum (DSM62316); assay: MIC assay; type: cell-based; settings: two-fold serial dilutions in liquid media, n = 2–3
[36] = tested on: Candida glabrata (DSM11226); assay: MIC assay; type: cell-based; settings: Nakaseomyces glabratus, two-fold serial dilutions in liquid media, n = 2–3
[37] = tested on: Mycobacterium abscessus S (CIP 104536^T); assay: MIC assay (REMA); type: cell-based; settings: REMA microdilution, n = 2–3
[38] = tested on: Aspergillus fumigatus (DSM819); assay: MIC assay; type: cell-based; settings: two-fold serial dilutions in liquid media, n = 2–3
[39] = tested on: Vibrio alginolyticus (DSM2171); assay: MIC assay; type: cell-based; settings: two-fold serial dilutions in liquid media, n = 2–3
[40] = tested on: C. albicans DSM10697; assay: MIC assay; type: cell-based, Candida albicans; settings: Candida albicans, DSM10697; two-fold serial dilutions in liquid media; n = 2–3
[41] = Cytotoxic assay (resazurin); settings: human, HaCaT normal epidermal keratinocytes
[42] = tested on: Clostridium difficile (DSM1296); assay: MIC assay; type: cell-based; settings: Clostridioides difficile, two-fold serial dilutions in liquid media, n = 2–3
[43] = tested on: B. subtilis ATCC6633; assay: MIC assay; type: cell-based, Bacillus subtilis; settings: Bacillus subtilis, ATCC6633; two-fold serial dilutions in liquid media; n = 2–3

## CC(=O)Nc1ccc2c(c1)C(=O)/C(=C/c1ccc(OC(C)C)cc1)O2 [Compound 20, (Z)-N-(2-(4-isopropoxybenzylidene)-3-oxo-2,3-dihydrobenzofuran-5-yl)acetamide]
[1]
  MIC: 50 µM (≈ 16.9 µg/mL)
[2]; Highest CC50, highest of the six human cell types
  CC50 at 48 h: > 500 µM
[2]; Lowest CC50, lowest of the six human cell types
  CC50 at 48 h: 126 µM
[3]
  CC50 at 48 h: > 500 µM
  IC50 at 48 h: > 500 µM
[4]
  MIC: > 100 µM
[5]; Enterobacter cloacae, DSM30054
  MIC: > 100 µM
[5]
  MIC: >100 µM
[6]
  MIC: 3.12 µM (≈ 1.05 µg/mL)
[7]
  MIC: 50 µM (≈ 16.9 µg/mL)
[8]
  CC50 at 48 h: 438 µM
  IC50 at 48 h: 438 µM
[9]
  MIC: > 100 µM
[10]
  MIC: 6.25 µM (≈ 2.11 µg/mL)
[11]
  CC50 at 48 h: 186 µM
  IC50 at 48 h: 186 µM
[12]
  MIC: 25 µM (≈ 8.43 µg/mL)
[13]
  MIC: 25 µM (≈ 8.43 µg/mL)
[14]
  MIC: 25 µM (≈ 8.43 µg/mL)
[15]
  MIC: 25 µM (≈ 8.43 µg/mL)
[16]
  MIC: 50 µM (≈ 16.9 µg/mL)
[17]
  MIC: 100 µM (≈ 33.7 µg/mL)
[18]
  CC50 at 48 h: 126 µM
  IC50 at 48 h: 126 µM
[19]
  MIC: 12.5 µM (≈ 4.22 µg/mL)
[20]
  MIC: 12.5 µM (≈ 4.22 µg/mL)
[21]; Mycobacteroides abscessus, CIP104536, R morphotype
  MIC: > 100 µM
[21]; R morphotype
  MIC Mycobacterium abscessus R(CIP 104536^T): inactive
[22]
  MIC: 100 µM (≈ 33.7 µg/mL)
[23]
  MIC: 12.5 µM (≈ 4.22 µg/mL)
[24]
  MIC: 12.5 µM (≈ 4.22 µg/mL)
[25]
  MIC: 25 µM (≈ 8.43 µg/mL)
[26]
  CC50 at 48 h: 453 µM
  IC50 at 48 h: 453 µM
[27]
  MIC: 6.25 µM (≈ 2.11 µg/mL)
[28]
  MIC: 12.5 µM (≈ 4.22 µg/mL)
[29]
  MIC: 12.5 µM (≈ 4.22 µg/mL)
[30]; Pseudomonas aeruginosa, ATCC9027
  MIC: > 100 µM
[30]
  MIC: >100 µM
[31]
  MIC: 25 µM (≈ 8.43 µg/mL)
[32]; Mycobacterium tuberculosis, H37RV
  MIC: > 100 µM
[32]
  MIC Mycobacterium tuberculosis H37Rv (mc^26230): inactive
[33]; Klebsiella pneumoniae, DSM26371
  MIC: > 100 µM
[33]
  MIC: >100 µM
[34]
  MIC: 50 µM (≈ 16.9 µg/mL)
[35]
  MIC: 25 µM (≈ 8.43 µg/mL)
[36]
  MIC: 50 µM (≈ 16.9 µg/mL)
[37]; Mycobacteroides abscessus, CIP104536, S morphotype
  MIC: > 100 µM
[37]; S morphotype
  MIC Mycobacterium abscessus S (CIP 104536^T): inactive
[38]; Aspergillus fumigatus, DSM819
  MIC: > 100 µM
[38]
  MIC Aspergillus fumigatus (DSM819): inactive
[39]
  MIC: 50 µM (≈ 16.9 µg/mL)
[40]
  MIC: 50 µM (≈ 16.9 µg/mL)
[41]
  CC50 at 48 h: 323 µM
  IC50 at 48 h: 323 µM
[42]
  MIC: 3.12 µM (≈ 1.05 µg/mL)
[43]
  MIC: 25 µM (≈ 8.43 µg/mL)
